One block for each compound: values may come before it.
Key:
[1] = Anastrazole encapsulation ratio of PLGA microparticles (HPLC); assay type: physicochemical; conditions: PLGA 7E/0.15 g + 4A 0.1 g; 60 mg of anastrazole; Ethyl formate; 6 mL of 10 M NaOH
[2] = as above; assay type: physicochemical; conditions: 60 mg of anastrazole
Procedure: Each of 7E, 4A and 2A polymers was dissolved in 4 mL of ethyl acetate. Then, 60 mg of anastrazole was dissolved to prepare a dispersed phase. The solution was added to 40 mL of 0.5% PVA aqueous solution and stirred. 5 mL of 10 M NaOH was added to the resultant o/w emulsion. After adding 40 mL of distilled water and stirring, microparticles were recovered by filtration. The microparticles were redispersed in 16 mL of 0.5% PVA aqueous solution. After adding distilled water to make 80 mL, the solution was stirred. After filtration, the microparticles were dried overnight in a vacuum dryer.
Similarly, microparticles encapsulating progesterone were prepared using ethyl formate instead of ethyl acetate and using 6 mL of 10 M NaOH.
Some of the microparticles prepared in Example <8-1> were accurately weighed and dissolved in 4 mL of tetrahydrofuran. After diluting 6 times with 50% acetonitrile, the solution was filtered using a 0.45 μm syringe filter to remove the PLGA precipitate. Some of the filtrate (20 μl) was subjected to HPLC (Shimadzu LC-20AD, Luna 5 m C18(2) column) for measurement of anastrazole concentration. Drug encapsulation ratio (%) was calculated using the equations given in Example <7-2>.

[3] = HPLC chromatogram analysis of anastrazole for decomposition or modification products; assay type: physicochemical; conditions: ethyl acetate/PLGA (75:25)/NaOH; encapsulated in the microparticles and then recovered; HPLC chromatograms
Procedure: In order to indirectly estimate whether decomposition or modification products of anastrazole are produced during the preparation of microparticles using ethyl acetate/PLGA (75:25)/NaOH as in Example <8-1>, various samples were prepared (as in Example <8-1>) and their chromatograms were analyzed.

[4] = Aripiprazole encapsulation ratio of PLGA microparticles (HPLC); assay type: physicochemical; conditions: PLGA 4A/0.25 g; 60 mg of aripiprazole; Ethyl formate; 5 mL of 8 M NaOH
Procedure: (§1) 0.25 g of 4A was dissolved in 4 mL of ethyl formate. Then, 60 mg of aripiprazole was dissolved to prepare a dispersed phase. The solution was added to 40 mL of 0.5% PVA aqueous solution and stirred. After adding 5 mL of 8 M NaOH to the resultant o/w emulsion, followed by reaction for 30 minutes, 40 mL of distilled water was further added and, after stirring, microparticles were recovered by filtration. The microparticles were redispersed in 16 mL of 0.5% PVA aqueous solution. After adding distilled water to make 80 mL, the solution was stirred. After filtration, the microparticles were dried overnight in a vacuum dryer.
(§2) Some of the microparticles including aripiprazole were accurately weighed and dissolved in 4 mL of tetrahydrofuran. After diluting 6 times with ethanol, the solution was filtered to remove the PLGA precipitate. Some of the filtrate (20 μl) was subjected to HPLC (Shimadzu LC-20AD) for measurement of aripiprazole concentration. Drug encapsulation ratio (%) was calculated using the equations given in Example <7-2>.

[5] = Encapsulation ratio of docetaxel, piroxicam, rivastigmine or tolterodine in PLGA microparticles (HPLC); assay type: physicochemical; conditions: 0.25 g of 7E, 5 mL of 7 M NaOH
Procedure: Then, 0.25 g of 7E was dissolved to prepare a dispersed phase. The solution was added to 40 mL of 0.5% PVA aqueous solution and stirred. After adding 5 mL of 7 M NaOH to the resultant o/w emulsion, followed by reaction for 30 minutes, 40 mL of distilled water was further added and, after stirring, microparticles were recovered by filtration. The microparticles were redispersed in 16 mL of 0.5% PVA aqueous solution. After adding distilled water to make 80 mL, the solution was stirred. […] After diluting 6 times with ethanol, the solution was filtered to remove the PLGA precipitate.

[6] = background statement on organic solvents; cited from earlier work
[7] = Thermogravimetric analysis of microparticles; assay type: physicochemical; conditions: up to 150° C.; isopropyl formate, 0.25 g of 7E and 250 mg of progesterone; 10° C./min, nitrogen
Procedure: The microparticles prepared in Example <7-3> (using isopropyl formate, 0.25 g of 7E and 250 mg of progesterone) and microparticles not including progesterone were analyzed using a thermogravimetric analyzer (TGA 2050). Nitrogen was used as a purge gas. Change in weight of the microparticles was automatically recorded while increasing temperature at a rate of 10° C./min.

[8] = Progesterone encapsulation ratio of PLGA microparticles (HPLC); assay type: physicochemical
Procedure: 0.25 g of 7E or 4A was dissolved in 4 mL of ethyl acetate. […] After stirring and filtration, microparticles were recovered. The microparticles were redispersed in 16 mL of 0.5% PVA solution and stirred, after adding distilled water to make 80 mL. […] Similarly, microparticles encapsulating progesterone were prepared using ethyl formate instead of ethyl acetate and using 6 mL of 10 M NaOH or 5 mL of 10 M HCl as a decomposition reagent. Some of the microparticles prepared in Example <7-1> were accurately weighed and dissolved in 4 mL of tetrahydrofuran. After diluting 6 times with methanol, the solution was filtered to remove the PLGA precipitate. Some of the filtrate (20 μl) was subjected to HPLC (Shimadzu LC-20AD, Luna 5 m C18(2) column) for measurement of progesterone concentration. Theoretical drug load (%) and actual drug load (%) were calculated from the following equations, and their ratio was defined as drug encapsulation ratio (%). Theoretical drug load (%)=(Weight of drug used (mg)/[Weight of PLGA used (mg)+Weight of drug used (mg)])×100 Actual drug load (%)=(Weight of drug encapsulated in microparticles (mg)/Weight of microparticles used for encapsulation ratio measurement (mg))×100 Drug encapsulation ratio (%)=(Actual drug load (%)/Theoretical drug load (%))×100 0.25 g of 7E was dissolved in 4 mL of isopropyl formate or propyl formate. […] After stirring and filtration, microparticles were recovered. The microparticles were redispersed in 16 mL of 0.5% PVA solution and stirred, after adding distilled water to make 80 mL. After filtration, the microparticles were in a vacuum dryer.

[9] = Risperidone encapsulation ratio of PLGA microparticles (HPLC); assay type: physicochemical; conditions: PLGA 4A/0.25 g; 60 mg of risperidone; Ethyl formate; 5 mL of 8 M NaOH
Procedure: as §1, with “risperidone” for “aripiprazole”
as §2, with “risperidone” for “aripiprazole”

[10] = PLGA 2A/0.25 g, Ethyl acetate, 5 mL of 10 M NaOH
[11] = PLGA 4A/0.25 g, Ethyl acetate, 5 mL of 10 M NaOH
[12] = PLGA 7E/0.15 g + 4A 0.1 g, Ethyl formate, 6 mL of 10 M NaOH
[13] = PLGA 7E/0.15 g + 4A/0.1 g, Ethyl acetate, 5 mL of 10 M NaOH
[14] = 50 mg of docetaxel, Ethyl acetate
[15] = 50 mg of piroxicam, Ethyl formate
[16] = PLGA 4A/0.25 g, progesterone 60 mg, 10M NaOH 5 mL, ethyl acetate
[17] = PLGA 4A/0.25 g, progesterone 60 mg, 10M NaOH 6 mL, ethyl formate
[18] = PLGA 4A/0.25 g, progesterone 250 mg, 10M NaOH 5 mL, ethyl acetate
[19] = PLGA 4A/0.25 g, progesterone 250 mg, 10M NaOH 6 mL, ethyl formate
[20] = PLGA 7E/0.25 g, progesterone 60 mg, 10M HCl 5 mL, ethyl formate
[21] = PLGA 7E/0.25 g, progesterone 60 mg, 10M NaOH 5 mL, ethyl acetate
[22] = PLGA 7E/0.25 g, progesterone 60 mg, 10M NaOH 6 mL, ethyl formate
[23] = PLGA 7E/0.25 g, progesterone 100 mg, 10M HCl 5 mL, ethyl formate
[24] = PLGA 7E/0.25 g, progesterone 160 mg, 10M HCl 5 mL, ethyl formate
[25] = PLGA 7E/0.25 g, progesterone 200 mg, 10M HCl 5 mL, ethyl formate
[26] = PLGA 7E/0.25 g, progesterone 250 mg, 10M HCl 5 mL, ethyl formate
[27] = PLGA 7E/0.25 g, progesterone 250 mg, 10M NaOH 5 mL, ethyl acetate
[28] = PLGA 7E/0.25 g, progesterone 250 mg, 10M NaOH 6 mL, ethyl formate
[29] = 40 μl of rivastigmine, Ethyl acetate (table)
[30] = 40 mg of tolterodine, Ethyl formate

Encapsulation ratio (%) Batch 3 [1]: 65.5%
Encapsulation ratio (%) Batch 1 [2, 10]: 78.5%
Encapsulation ratio (%) Batch 2 [2, 10]: 75.2%
Encapsulation ratio (%) Batch 3 [2, 10]: 73.7%
Encapsulation ratio (%) Batch 1 [2, 11]: 78.1%
Encapsulation ratio (%) Batch 2 [2, 11]: 74.9%
Encapsulation ratio (%) Batch 3 [2, 11]: 77.6%
Encapsulation ratio (%) Batch 1 [2, 12]: 60.8%
Encapsulation ratio (%) Batch 2 [2, 12]: 65.1%
Encapsulation ratio (%) Batch 1 [2, 13]: 75.3%
Encapsulation ratio (%) Batch 2 [2, 13]: 73.8%
Encapsulation ratio (%) Batch 3 [2, 13]: 74.7%
Structure (SMILES): CC(C)(C#N)c1cc(Cn2cncn2)cc(C(C)(C)C#N)c1 [anastrazole]
decomposition or modification products of anastrazole during the preparation of microparticles [3]: no decomposition or modification products of anastrazole are produced

Average encapsulation ratio of 3 batches [4]: 72.3±2.0%
Encapsulation ratio (%) Batch 1 [4]: 72.2%
Encapsulation ratio (%) Batch 2 [4]: 74.3%
Encapsulation ratio (%) Batch 3 [4]: 70.3%
Structure (SMILES): O=C1CCc2ccc(OCCCCN3CCN(c4cccc(Cl)c4Cl)CC3)cc2N1 [aripiprazole]

Encapsulation ratio (%) Batch 1 [5, 14]: 83.2%
Encapsulation ratio (%) Batch 2 [5, 14]: 80.2%
Encapsulation ratio (%) Batch 3 [5, 14]: 84.2%
Structure (SMILES): CC(=O)O[C@@]12CO[C@@H]1C[C@H](O)[C@@]1(C)C(=O)[C@H](O)C3=C(C)[C@@H](OC(=O)[C@H](O)[C@@H](NC(=O)OC(C)(C)C)c4ccccc4)C[C@@](O)([C@@H](OC(=O)c4ccccc4)[C@H]21)C3(C)C [docetaxel]

Structure (SMILES): CCOC(C)=O [ethyl acetate]
water solubility [6]: 8.7 % by weight

Structure (SMILES): ClCCl [methylene chloride]
water solubility [6]: 1.32 % by weight

Encapsulation ratio (%) Batch 1 [5, 15]: 76.2%
Encapsulation ratio (%) Batch 2 [5, 15]: 81.2%
Encapsulation ratio (%) Batch 3 [5, 15]: 79.2%
Structure (SMILES): CN1C(C(=O)Nc2ccccn2)=C(O)c2ccccc2S1(=O)=O [piroxicam]

weight loss of the microparticles [7]: 0.75%
Encapsulation ratio (%) Batch 1 [8, 16]: 90.5%
Encapsulation ratio (%) Batch 2 [8, 16]: 92.8%
Encapsulation ratio (%) Batch 3 [8, 16]: 95.3%
Encapsulation ratio (%) Batch 1 [8, 17]: 92.0%
Encapsulation ratio (%) Batch 2 [8, 17]: 93.3%
Encapsulation ratio (%) Batch 3 [8, 17]: 95.6%
Encapsulation ratio (%) Batch 1 [8, 18]: 93.2%
Encapsulation ratio (%) Batch 2 [8, 18]: 92.2%
Encapsulation ratio (%) Batch 3 [8, 18]: 98.5%
Encapsulation ratio (%) Batch 1 [8, 19]: 96.2%
Encapsulation ratio (%) Batch 2 [8, 19]: 93.2%
Encapsulation ratio (%) Batch 3 [8, 19]: 100.7%
Encapsulation ratio (%) Batch 1 [8, 20]: 84.1%
Encapsulation ratio (%) Batch 2 [8, 20]: 88.7%
Encapsulation ratio (%) Batch 3 [8, 20]: 86.1%
Encapsulation ratio (%) Batch 1 [8, 21]: 93.8%
Encapsulation ratio (%) Batch 2 [8, 21]: 92.3%
Encapsulation ratio (%) Batch 3 [8, 21]: 96.0%
Encapsulation ratio (%) Batch 1 [8, 22]: 93.9%
Encapsulation ratio (%) Batch 2 [8, 22]: 94.0%
Encapsulation ratio (%) Batch 3 [8, 22]: 91.6%
Encapsulation ratio (%) Batch 1 [8, 23]: 89.0%
Encapsulation ratio (%) Batch 2 [8, 23]: 92.8%
Encapsulation ratio (%) Batch 3 [8, 23]: 91.5%
Encapsulation ratio (%) Batch 1 [8, 24]: 98.9%
Encapsulation ratio (%) Batch 2 [8, 24]: 102.0%
Encapsulation ratio (%) Batch 3 [8, 24]: 96.9%
Encapsulation ratio (%) Batch 1 [8, 25]: 99.2%
Encapsulation ratio (%) Batch 2 [8, 25]: 102.0%
Encapsulation ratio (%) Batch 3 [8, 25]: 95.5%
Encapsulation ratio (%) Batch 1 [8, 26]: 101.0%
Encapsulation ratio (%) Batch 2 [8, 26]: 101.0%
Encapsulation ratio (%) Batch 3 [8, 26]: 99.6%
Encapsulation ratio (%) Batch 1 [8, 27]: 92.8%
Encapsulation ratio (%) Batch 2 [8, 27]: 92.0%
Encapsulation ratio (%) Batch 3 [8, 27]: 97.7%
Encapsulation ratio (%) Batch 1 [8, 28]: 95.5%
Encapsulation ratio (%) Batch 2 [8, 28]: 98.5%
Encapsulation ratio (%) Batch 3 [8, 28]: 99.7%
Structure (SMILES): CC(=O)[C@H]1CC[C@H]2[C@@H]3CCC4=CC(=O)CC[C@]4(C)[C@H]3CC[C@]12C [progesterone]

Structure (SMILES): Cc1nc2n(c(=O)c1CCN1CCC(c3noc4cc(F)ccc34)CC1)CCCC2 [risperidone]
Average encapsulation ratio of 3 batches [9]: 75.0±1.4%
Encapsulation ratio (%) Batch 1 [9]: 75.2%
Encapsulation ratio (%) Batch 2 [9]: 73.6%
Encapsulation ratio (%) Batch 3 [9]: 76.3%

Structure (SMILES): CCN(C)C(=O)Oc1cccc([C@H](C)N(C)C)c1 [rivastigmine]
Encapsulation ratio (%) Batch 1 [5, 29]: 74.2%
Encapsulation ratio (%) Batch 2 [5, 29]: 79.2%
Encapsulation ratio (%) Batch 3 [5, 29]: 78.1%

Structure (SMILES): Cc1ccc(O)c([C@H](CCN(C(C)C)C(C)C)c2ccccc2)c1 [tolterodine]
Encapsulation ratio (%) Batch 1 [5, 30]: 70.3%
Encapsulation ratio (%) Batch 2 [5, 30]: 77.3%
Encapsulation ratio (%) Batch 3 [5, 30]: 73.2%

— patent US8697127B2, “Method for preparing microspheres and microspheres produced thereby” (Ewha University-Industry Collaboration Foundation, priority 2008, dated 2014)
